# Measurements published in patent US7060277B2 (priority 1996, dated 2006).
# “Also recorded” adds a separate entry of the source. Square brackets hold non-standard residues; d marks the D form. Ends that are not written are not given here. Peptide text beside a SMILES is read from it.
# Assays:
# [1] = mouse, in vivo
# [2] = pig
# [3] = tested on: SEB-mediated induction of IL-2, IFN-γ and/or TNF-β gene expression in PBMC; format: cell-based, human
# [4] = tested on: expression of IL-2 and IFN-γ genes in PBMC; format: cell-based, human
# [5] = tested on: induction of IL-2 / IFN-γ mRNA by TSST-1 in PBMC; format: cell-based, human
# SEB-induced lethal shock = tested on: SEB-induced lethal shock; set-up: species or system BALB/c mice; details: mouse, in vivo
compound,measurement,setting,value
"CC(C)C[C@H](NC(=O)[C@H](CCC(=O)O)NC(=O)[C@H](CCC(N)=O)NC(=O)[C@@H](NC(=O)[C@@H](NC(=O)[C@H](C)NC(=O)[C@H](CCCCN)NC(=O)[C@H](CCCCN)NC(=O)[C@H](CCCCN)NC(=O)[C@H](CC(N)=O)NC(=O)[C@H](Cc1ccc(O)cc1)NC(=O)[C@@H](C)N)[C@@H](C)O)C(C)C)C(=O)N[C@@H](CC(=O)O)C(=O)N[C@H](C)C(=O)O [p12A, daY N K K K A T V Q E L Dda] (H-[dA]YNKKKATVQELD[dA]-OH)","side effects in peptide-treated, SEB-challenged mice",[1],No side effects
same,viability and side effects of mice exposed to peptide alone,[1],stayed fully viable and showed no detectable side effects
"CC(C)C[C@H](NC(=O)[C@H](CCC(=O)O)NC(=O)[C@H](CCC(N)=O)NC(=O)[C@@H](NC(=O)[C@@H](NC(=O)[C@H](C)NC(=O)[C@H](CCCCN)NC(=O)[C@H](CCCCN)NC(=O)[C@H](CCCCN)NC(=O)[C@H](CC(N)=O)NC(=O)[C@H](Cc1ccc(O)cc1)NC(=O)[C@H](CCC(N)=O)NC(=O)[C@@H](NC(=O)[C@@H](C)N)C(C)C)[C@@H](C)O)C(C)C)C(=O)N[C@@H](CC(=O)O)C(=O)N[C@H](C)C(=O)O [p14A, daV Q Y N K K K A T V Q E L Dda] (H-[dA]VQYNKKKATVQELD[dA]-OH)",viability and side effects of mice exposed to peptide alone,[1],stayed fully viable and showed no detectable side effects
same,toxin agonist activity in vivo,[2],without any detectable toxin agonist activity in vivo
same,symptoms of incapacitation in pigs that received peptide alone,[2]; in vivo,failed to develop any symptoms of incapacitation
C Y N K K K A T V Q E L D C [Cys-p12(150–161)],"SEB antagonist activity, IL-2 and IFN-γ mRNA at 8 hrs",[3],"significant SEB antagonist activity, even upon tenfold dilution"
same,"SEB antagonist activity, overall comparison",[3],more powerful as antagonist than p12(150–161)
IDQFLYFDLIYSIKDTKLGNY (IDQFLYFDLIYSIKDTKLGNY) [pSEB(41–61)],"SEB agonist activity, induction of mRNA for IL-2 or IFN-γ by RNase protection",[4],failed to show SEB agonist activity
same,block of induction of IL-2 and IFN-γ mRNA by SEB,[3],failed to block induction of IL-2 and IFN-γ mRNA by SEB
K K K A T V Q E L D (KKKATVQELD) [p10(152–161)],"antagonist activity, SEB-mediated IL-2 mRNA induction",[3],"pronounced antagonist activity; also recorded: lower, yet still significant, antagonist activity"
same,inhibition of IL-2 gene induction by SEB,[3],up to 8 fold
K K K V T A Q E L D (KKKVTAQELD) [pSEB(152–161)],"antagonist activity, SEB-mediated IL-2 mRNA induction",[3],pronounced antagonist activity
"TNKKKVTAQELD [pSEB(150–161), T N K K K V T A Q E L D]",viability of PBMC cultured with peptide,PBMC,undiminished viability
YNKKKATVQELDYNKKKATVQELI (YNKKKATVQELDYNKKKATVQELD; listed as Staphylococcus aureus) [Dimer],inhibition of induction of IL-2 mRNA by TSST-1,[5],inhibited
same,"SEB antagonist activity, overall comparison",[3],more powerful as antagonist than p12(150–161)
same,"inhibition of IFN-γ mRNA induction by SEB, peptide diluted 100-fold",[3],detectable inhibition
same,inhibition of SEB-induced IL-2 and IFN-γ gene expression,[3],effective as antagonist
same,inhibition of induction of IL-2 and IFN-γ mRNA by SEB,[3],strongly inhibitory
same,inhibition of induction of IL-2 mRNA by SEB,[3],inhibited
YNKKKATVQELDYNKKKATVQELIYNKKKATVQELD (YNKKKATVQELDYNKKKATVQELIYNKKKATVQELD) [Trimer],inhibition of induction of IL-2 and IFN-γ mRNA by SEB,[3],strongly inhibitory
"YNKKKATVQELD [p12(150–161), Y N K K K A T V Q E L D]",viability of PBMC cultured with peptide,PBMC,undiminished viability
lpV Q Y N K K K A T V Q E L D [p14A-LP],immunized mice that survived lethal SEB challenge,SEB-induced lethal shock,Ten out of 11
same,immunized survivors that survived rechallenge with a double dose of SEB,SEB-induced lethal shock,7 out of the 10
